According to ChEMBL document CHEMBL1125324, “Development of a novel class of cyclic hexapeptide oxytocin antagonists based on a natural product” (J Med Chem, 1992):
≈ marks a conversion by molar mass, not a printed value. Where a SMILES comes first, the peptide text is derived from it. [ ]: non-standard residue; d: D form. d2Nal = N[C@H](Cc1ccc2ccccc2c1)C(=O)O; Pip(4-aza) = O=C(O)[C@@H]1CNCCN1; dNMeF = CN[C@H](Cc1ccccc1)C(=O)O; Pip = O=C(O)[C@@H]1CCCCN1; dPip = O=C(O)[C@H]1CCCCN1

How the values were obtained:
[1] = biological target: T1, Vasopressin V2 receptor (Rattus norvegicus, UniProt Q00788); test: Inhibition of [3H]arginine vasopressin binding to AVP-V2 site in rat kidney medulla.; assay type: tissue-based
T1 sequence (Q00788 whole entry): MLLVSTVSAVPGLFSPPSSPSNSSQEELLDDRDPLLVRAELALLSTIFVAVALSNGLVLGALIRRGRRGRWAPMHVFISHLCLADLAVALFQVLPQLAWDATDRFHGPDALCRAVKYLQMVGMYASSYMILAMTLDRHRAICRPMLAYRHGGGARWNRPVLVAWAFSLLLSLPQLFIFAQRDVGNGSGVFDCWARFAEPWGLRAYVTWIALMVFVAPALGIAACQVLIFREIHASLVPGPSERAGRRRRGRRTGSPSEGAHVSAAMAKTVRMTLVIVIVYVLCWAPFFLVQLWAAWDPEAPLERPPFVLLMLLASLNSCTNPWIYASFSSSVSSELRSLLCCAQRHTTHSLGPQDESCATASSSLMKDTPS

[2] = system: Rattus norvegicus; test: Dose required for 50% reduction of the contractile response of the uterus to OT (1 ug/kg, iv bolus) in DES-pretreated rats; assay type: functional
[3] = species: Rattus norvegicus; test: pA2 value was determined from regression analysis of log (dose ratio-1) vs -log [antagonist] (isolated uterus from DES-pretreated rats); assay type: functional; conditions: read-out: pA2 (converted)
[4] = Aqueous solubility was determined; assay type: physicochemical
[5] = species: Rattus norvegicus; test: Compound was evaluated for the inhibition of accumulation of total [3H]inositol phosphates stimulated by exposure of the tissue to OT; assay type: functional
[6] = biological target: Vasopressin V1a receptor (Rattus norvegicus, UniProt P30560); test: Concentration required to displace 50% of [3H]arginine vasopressin from rat liver arginine vasopressin 1A (AVP-V1a) site.
Chain of Vasopressin V1a receptor (P30560 whole entry): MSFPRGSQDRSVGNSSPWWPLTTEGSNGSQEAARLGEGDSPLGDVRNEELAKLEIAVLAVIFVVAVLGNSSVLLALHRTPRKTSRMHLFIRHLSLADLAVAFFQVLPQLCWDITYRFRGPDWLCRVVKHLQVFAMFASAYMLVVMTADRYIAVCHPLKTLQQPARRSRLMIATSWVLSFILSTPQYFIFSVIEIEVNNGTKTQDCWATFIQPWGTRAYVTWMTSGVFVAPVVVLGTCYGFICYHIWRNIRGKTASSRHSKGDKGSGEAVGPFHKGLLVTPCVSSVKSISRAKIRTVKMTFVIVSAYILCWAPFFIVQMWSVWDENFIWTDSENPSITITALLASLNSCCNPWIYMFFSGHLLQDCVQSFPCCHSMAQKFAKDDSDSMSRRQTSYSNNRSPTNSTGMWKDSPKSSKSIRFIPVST

[7] = biological target: Vasopressin V2 receptor (Rattus norvegicus) (UniProt Q00788); test: Displacement of [3H]arginine vasopressin from rat kidney medullary (AVP-V2 site) at 10 uM; assay type: tissue-based
Chain of Vasopressin V2 receptor (Rattus norvegicus) (Q00788 whole entry): as the sequence (Q00788 whole entry) above

[8] = biological target: T2, Oxytocin receptor (Rattus norvegicus) (UniProt P70536); test: Inhibition of displacement of [3H]oxytocin from rat uterine receptor at 10 uM
T2 sequence (whole entry): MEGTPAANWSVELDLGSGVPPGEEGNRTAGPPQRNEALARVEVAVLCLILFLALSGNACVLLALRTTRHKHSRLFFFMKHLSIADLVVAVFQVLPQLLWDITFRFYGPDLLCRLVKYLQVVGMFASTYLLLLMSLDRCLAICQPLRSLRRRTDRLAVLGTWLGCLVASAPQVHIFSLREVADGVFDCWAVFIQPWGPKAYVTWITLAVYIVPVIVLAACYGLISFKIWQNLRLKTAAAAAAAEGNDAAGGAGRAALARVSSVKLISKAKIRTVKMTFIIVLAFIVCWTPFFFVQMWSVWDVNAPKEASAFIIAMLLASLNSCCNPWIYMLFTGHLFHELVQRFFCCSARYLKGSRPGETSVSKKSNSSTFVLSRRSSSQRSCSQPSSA

[9] = biological target: Vasopressin V1a receptor (Rattus norvegicus) (UniProt P30560); test: Displacement of [3H]arginine vasopressin from rat liver (AVP-V1a site) at 10 uM
Chain of Vasopressin V1a receptor (Rattus norvegicus) (P30560 whole entry, looked up): as the sequence (P30560 whole entry) above

[10] = biological target: T1, Vasopressin V2 receptor; test: Concentration required to displace 50% of [3H]arginine vasopressin from rat kidney medullary (AVP-[…] site)
[11] = biological target: T3, Oxytocin receptor (Rattus norvegicus, UniProt P70536); test: Concentration required to displace 50% of [3H]oxytocin from rat uterine receptor.
T3 sequence (P70536 whole entry): T2 sequence (whole entry)

[12] = biological target: T3, Oxytocin receptor; test: Compound was evaluated for OT receptor affinity by displacement of [3H]OT from binding sites in uterine tissue taken from pregnant rats
[13] = biological target: T4, Oxytocin receptor (Homo sapiens, UniProt P30559); test: Compound was evaluated for OT receptor affinity by displacement of [3H]OT from binding sites in uterine tissue taken from nonlabor pregnant women
T4 sequence (P30559 whole entry): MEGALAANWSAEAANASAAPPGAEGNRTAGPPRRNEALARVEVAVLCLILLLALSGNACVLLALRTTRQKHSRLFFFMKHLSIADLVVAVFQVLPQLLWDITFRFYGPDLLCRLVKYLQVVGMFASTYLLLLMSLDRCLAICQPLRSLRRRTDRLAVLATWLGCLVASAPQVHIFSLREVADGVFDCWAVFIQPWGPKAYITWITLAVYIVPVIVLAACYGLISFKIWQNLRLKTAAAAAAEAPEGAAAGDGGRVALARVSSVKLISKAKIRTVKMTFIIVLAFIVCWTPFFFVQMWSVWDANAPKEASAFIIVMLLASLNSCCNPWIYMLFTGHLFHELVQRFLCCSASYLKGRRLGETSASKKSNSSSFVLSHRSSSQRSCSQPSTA

[14] = biological target: T1, Vasopressin V2 receptor; test: Ability to inhibit AVP stimulation of adenylate cyclase activity in the rat kidney medulla (AVP-V2) receptor
[15] = species: Rattus norvegicus; test: pA2 value by AVP (V1a) stimulated contraction of the isolated rat tail artery; assay type: functional; conditions: read-out: pA2 (converted)
[16] = species: Rattus norvegicus; test: Compound was evaluated for the inhibition of accumulation of total [3H]inositol phosphates stimulated by exposure of uterine slices from DES-pretreated rats to OT; assay type: functional
[17] = species: Rattus norvegicus; test: pA2 value was determined from regression analysis of log (dose ratio-1) vs -log [antagonist] (OT stimulated contractions in isolated uterus from DES-pretreated rats); assay type: functional; conditions: read-out: pA2 (converted)

SMILES: CC[C@H](C)[C@@H]1NC(=O)[C@@H](Cc2c[nH]c3ccccc23)NC(=O)[C@@H]2CCCN2C(=O)[C@@H](Cc2c[nH]cn2)NC(=O)[C@@H]2CCCCN2C(=O)[C@H]2CCC=NN2C1=O
- IC50 [1]: 1100 nM
- AD50 [2]: 0.0903 mg/kg
- Kb [3]: 1.51 nM
- solubility [4]: 1900 µg/mL (≈ 2520 µM)
- IC50 [5]: 42 nM

SMILES: CC[C@H](C)[C@@H]1NC(=O)[C@@H](Cc2ccccc2)NC(=O)[C@@H]2CCCN2C(=O)[C@@H](Cc2ccccc2)N(C)C(=O)[C@H](CCCN)NC(=O)[C@H]2CCC=NN2C1=O
- AD50 [2]: 0.0716 mg/kg
- IC50 [6]: 800 nM
- Kb [3]: 3.39 nM
- solubility [4]: 1500 µg/mL (≈ 2020 µM)

SMILES: CC[C@H](C)[C@@H]1NC(=O)[C@H](C)NC(=O)[C@@H]2CCCN2C(=O)[C@@H](Cc2ccccc2)N(C)C(=O)[C@@H]2CCCCN2C(=O)[C@H]2CCCCN2C1=O
- inhibition [7]: 4%
- inhibition [8]: 0%
- inhibition [9]: 0%

SMILES: CC[C@H](C)[C@@H]1NC(=O)[C@@H](Cc2c[nH]c3ccccc23)NC(=O)[C@@H]2CCCN2C(=O)[C@@H](Cc2ccccc2)N(C)C(=O)[C@H](CCCCN)NC(=O)[C@H]2CCCCN2C1=O (cyclo(I[dPip]K[dNMeF]P[dW]))
- IC50 [6]: 1600 nM
- IC50 [10]: 410 nM

SMILES: CC[C@H](C)[C@@H]1NC(=O)[C@@H](Cc2c[nH]c3ccccc23)NC(=O)[C@@H]2CCCN2C(=O)[C@@H](Cc2ccccc2)N(C)C(=O)[C@@H]2CNCCN2C(=O)[C@H]2CCCCN2C1=O (cyclo(I[dPip][Pip(4-aza)][dNMeF]P[dW]))
- IC50 [11]: 8.4 nM
- IC50 [1]: 690 nM
- AD50 [2]: 0.101 mg/kg
- IC50 [6]: 32000 nM
- Ki [12]: 3.4 nM
- Kb [3]: 2.57 nM
- Ki [13]: 4.5 nM
- solubility [4]: 1400 µg/mL (≈ 1790 µM)

SMILES: CC[C@H](C)[C@@H]1NC(=O)[C@@H](Cc2ccc3ccccc3c2)NC(=O)[C@@H]2CCCN2C(=O)[C@@H](Cc2c[nH]cn2)NC(=O)[C@@H]2CCCCN2C(=O)[C@H]2CCCCN2C1=O (cyclo(I[dPip][Pip][dH]P[d2Nal]))
- IC50 [11]: 2.2 nM
- IC50 [1]: 910 nM
- AD50 [2]: 0.102 mg/kg
- IC50 [6]: 2600 nM
- IC50 [14]: 810 nM
- Ki [12]: 0.7 nM
- Kb [3]: 2.95 nM
- Ki [13]: 5.1 nM
- solubility [4]: 1500 µg/mL (≈ 1960 µM)
- Kb [15]: 282 nM
- IC50 [5]: 40 nM

SMILES: CC[C@H](C)[C@@H]1NC(=O)[C@@H](Cc2c[nH]c3ccccc23)NC(=O)[C@@H]2CCCN2C(=O)[C@@H](Cc2c[nH]cn2)NC(=O)[C@@H]2CCCCN2C(=O)[C@H]2CCCCN2C1=O (cyclo(I[dPip][Pip][dH]P[dW])) [listing 1 of 2 here]
- IC50 [16]: 67 nM
- Kb [17]: 2.51 nM
- Kb [15]: 871 nM

SMILES: CC[C@H](C)[C@@H]1NC(=O)[C@@H](Cc2c[nH]c3ccccc23)NC(=O)[C@@H]2CCCN2C(=O)[C@@H](Cc2c[nH]cn2)NC(=O)[C@@H]2CCCCN2C(=O)[C@H]2CCCCN2C1=O (cyclo(I[dPip][Pip][dH]P[dW])) [listing 2 of 2 here]
- IC50 [1]: 5200 nM
- IC50 [6]: 7400 nM
- IC50 [14]: 3100 nM
- solubility [4]: 2000 µg/mL (≈ 2650 µM)
